Experiments:
[1] = Dissociation constant, pKa of the compound; format: physicochemical
[2] = Partition coefficient, log D of the compound at pH 7.4; format: physicochemical; conditions: octanol/water
[3] = system: HCT-116; test: Cytotoxicity against human HCT116 cells at 10 uM; format: cell-based; conditions: hct-116, 10 µM
[4] = target: Kelch-like ECH-associated protein 1 (Homo sapiens) (UniProt Q14145); test: Inhibition of Keap1-Nrf2 interaction in human HepG2-ARE-C8 cells assessed as activation of Nrf2-ARE luciferase activity at 20 uM after 12 hrs relative to control; format: cell-based
[5] = target: Kelch-like ECH-associated protein 1 (Homo sapiens) (UniProt Q14145); test: Inhibition of Keap1-Nrf2 interaction in human HepG2-ARE-C8 cells assessed as activation of Nrf2-ARE luciferase activity at 40 uM after 12 hrs relative to control; format: cell-based
[6] = target: Kelch-like ECH-associated protein 1 (Homo sapiens) (UniProt Q14145); test: Inhibition of Keap1-Nrf2 interaction in human HepG2-ARE-C8 cells assessed as activation of Nrf2-ARE luciferase activity at 80 uM after 12 hrs relative to control; format: cell-based

Chain of Kelch-like ECH-associated protein 1 (Homo sapiens) (Q14145 whole entry): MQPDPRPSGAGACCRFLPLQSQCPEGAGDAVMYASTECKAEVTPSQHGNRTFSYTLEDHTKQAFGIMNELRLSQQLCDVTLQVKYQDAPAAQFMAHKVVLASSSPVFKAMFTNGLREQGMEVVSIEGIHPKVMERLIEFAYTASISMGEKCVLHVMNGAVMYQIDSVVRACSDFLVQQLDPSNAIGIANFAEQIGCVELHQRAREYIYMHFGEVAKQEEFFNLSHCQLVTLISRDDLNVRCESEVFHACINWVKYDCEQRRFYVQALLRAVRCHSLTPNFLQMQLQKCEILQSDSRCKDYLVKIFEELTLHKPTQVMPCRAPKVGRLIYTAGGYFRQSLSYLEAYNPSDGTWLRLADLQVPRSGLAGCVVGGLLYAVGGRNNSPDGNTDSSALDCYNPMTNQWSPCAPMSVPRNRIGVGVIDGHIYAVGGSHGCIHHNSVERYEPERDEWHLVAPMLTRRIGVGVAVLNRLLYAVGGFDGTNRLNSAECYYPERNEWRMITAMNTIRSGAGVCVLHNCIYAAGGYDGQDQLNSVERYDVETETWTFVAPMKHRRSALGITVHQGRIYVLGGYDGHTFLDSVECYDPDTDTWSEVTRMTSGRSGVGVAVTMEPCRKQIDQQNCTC

Structure (SMILES)	pKa [1]	logD [2]	Activity [3]	fold change (FC) [4]	fold change (FC) [5]	fold change (FC) [6]
COc1ccc(S(=O)(=O)N(CC(=O)O)c2ccc(N(CC(=O)O)S(=O)(=O)c3ccc(OC)cc3)c3ccccc23)cc1	4.62	1.71	Non-toxic			
C[S+]([O-])CCCCN=C=S (configuration not stated)				18.1		
CC(C)(C)c1cc(O)ccc1O				2.22	3.81	6.21

From ChEMBL document CHEMBL3233002, “Discovery of potent Keap1-Nrf2 protein-protein interaction inhibitor based on molecular binding determinants analysis” (J Med Chem, 2014)
